# Source: patent US12521439B2, “Methods and materials for modulating Nrf2 pathway” (The General Hospital Corporation, priority 2019, dated 2026)
# Tests used:
# Keap1 [1] = target: T1, Keap1 (Homo sapiens, UniProt Q14145); assay: Keap1 immunoblotting / immunoprecipitation; format: cell-based; set-up: Keap1 protein levels in U87 cells treated with the indicated doses of OBT for 8 hours; endogenous in cells; host or cells: U87, MDA-MB-231 (endogenous); 293T and MDA-MB-231 also transfected with HA-Keap1
# Experimental: Immunoblotting and Immunoprecipitation analysis: Antibodies against PDI, GAPDH, HA-tag, Ubiquitin, Keap1 and beta-actin (Cell Signaling) as well as secondary Horseradish peroxidase (HRP) conjugated antibodies: sheep anti-mouse IgG-HRP and donkey antirabbit IgG-HRP (Amersham Pharmacia Biotech) were used in this study. For protein expression analysis, cells were lysed in RIPA buffer (150 mM NaCl, 50 mM TRIS, pH 8.0, 1% NP-40, 0.5% deoxycholate, 0.1% SDS) supplemented with 1× protease inhibitors cocktail (Roche). Proteins were quantified using a Bradford protein determination assay (Bio-Rad) followed by electrophoresis in 10% NuPAGE Bis-Tris gels (Life Technologies) and transfer to nitrocellulose membranes (Bio-Rad). Membranes were incubated overnight with antibodies in 1-5% non-fat milk powder in PBS/0.5% TWEEN. Proteins were detected with SuperSignal West Pico Chemiluminescent Substrate (Pierce). For immunoprecipitation assays, cells were lysed in RIPA buffer supplemented with protease inhibitors and 2 mM N-ethylmaleimide. Cell lysates were pre-cleared with protein A agarose beads (Cell Signaling) and incubated with anti-HA antibody with gentle rocking overnight at 4° C. followed by incubation with protein A agarose beads and subsequent washing and elution steps. Electrophoresis, transfer and immunoblot analysis was performed as described above.
# Target sequence in this assay (Q14145 whole entry): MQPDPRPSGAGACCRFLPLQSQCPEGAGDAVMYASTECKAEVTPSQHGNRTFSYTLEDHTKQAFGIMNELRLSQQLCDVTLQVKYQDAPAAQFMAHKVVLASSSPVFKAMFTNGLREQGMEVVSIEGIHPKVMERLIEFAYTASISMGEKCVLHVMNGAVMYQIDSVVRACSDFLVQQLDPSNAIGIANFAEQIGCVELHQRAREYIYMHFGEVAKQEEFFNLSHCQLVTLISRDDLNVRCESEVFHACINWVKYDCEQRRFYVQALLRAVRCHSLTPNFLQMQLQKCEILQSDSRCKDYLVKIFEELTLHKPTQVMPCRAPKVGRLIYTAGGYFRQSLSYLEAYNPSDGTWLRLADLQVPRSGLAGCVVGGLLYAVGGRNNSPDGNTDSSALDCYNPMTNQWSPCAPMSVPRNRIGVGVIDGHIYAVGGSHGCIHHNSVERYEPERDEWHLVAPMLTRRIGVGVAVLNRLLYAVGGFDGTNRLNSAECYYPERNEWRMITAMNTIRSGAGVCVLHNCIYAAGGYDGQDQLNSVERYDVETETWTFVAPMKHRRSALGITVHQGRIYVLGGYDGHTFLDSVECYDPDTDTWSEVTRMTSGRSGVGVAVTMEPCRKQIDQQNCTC
# Keap1 [2] = target: T1, Keap1; assay: Differential alkylation mass spectrometry, Keap1; format: binding
# Target sequence in this assay (Q14145 whole entry, species assumed): as the sequence (Q14145 whole entry) above
# MDA-MB231 cells = assay: Cell viability (CellTiter-Glo), MDA-MB231; format: cell-based, human; settings: co-treatment MLN4924 (1 μM), three days
# Experimental: Cell culture: MDA-MB-231 and U87 (U87-MG) cells were obtained from the American Type Culture Collection (ATCC). 293T human embryonic kidney fibroblasts were provided by Dr. Xandra Breakefield (Massachusetts General Hospital). All three cell lines were grown in Dulbecco's modified Eagle medium supplemented with 10% fetal bovine serum (Gemini Bio-products), 100 U penicillin, and 0.1 mg/mL streptomycin (Sigma). All cells were maintained at 37° C. in a humidified 5% CO2 incubator. GSCs were obtained from tumor tissues of GBM patients following surgical resection, under approval from the corresponding Institutional Review Board. These cells have been previously characterized (ref. 37-39) and were maintained in culture as neurospheres in Neurobasal medium (Gibco) supplemented with heparin (2 μg/mL; Sigma) and recombinant EGF (20 ng/mL) and bFGF-2 (10 ng/mL; Peprotech). Human Astrocytes were obtained from ScienCell and cultured in Astrocytes Medium (ScienCell)
# Cell viability: Cells were plated in 96-well plates and treated with the corresponding compounds. Cell viability was measured by adding 25 μl/well of CellTiter-Glo (Promega) followed by 10 minutes incubation and transfer to a white 96-well plate. Bioluminescence was quantified using Synergy HTX multimode reader (Biotek).
# GSCs (GBM8 and BT07) = assay: Multiplexed quantitative (TMT) proteomics after OBT treatment; format: cell-based, human; settings: 20 h after subtoxic dose, two GSC lines
# Experimental: Quantitative Proteomics: Cell pellets were lysed in a buffer of 75 mM NaCl, 50 mM HEPES pH 8.5, 10 mM sodium pyrophosphate, 10 mM sodium fluoride, 10 mM β-glycerophosphate, 10 mM sodium orthovanadate, 10 mM PMSF, Roche complete mini EDTA free protease inhibitors (1 tablet per 20 ml), and 3% SDS. Lysis was achieved by passing the suspension through a 21-gauge needle 20 times. Proteins were prepared for proteomics analysis as described previously. […] Twelve fractions were analyzed by multiplexed quantitative proteomics performed on an Orbitrap Fusion mass spectrometer (Thermo Scientifc) using a Simultaneous Precursor Selection (SPS) based MS3 method. […] For the cell line samples only MS3 with an average signal-to-noise value of larger than 40 per reporter ion as well as with an isolation specificity of larger than 0.75 were considered for quantification. […] A two-step normalization of the protein TMT-intensities was performed by first normalizing the protein intensities over all acquired TMT channels for each protein based on the median average protein intensity calculated for all proteins. To correct for slight mixing errors of the peptide mixture from each sample a median of the normalized intensities was calculated from all protein intensities in each TMT channel and the protein intensities were normalized to the median value of these median intensities. […]
smiles,measurement,setting,value
"COC1=CC(=O)C(O)=C/C1=C/C=C/c1ccccc1 [OBT, (Z)-2-hydroxy-5-methoxy-4-((E)-3-phenylallylidene)cyclohexa-2,5-dien-1-one]",ubiquitination of Keap1,"Keap1 [1]; 293T, OBT 2 μM, 6 hours, IP anti-HA",resulted in ubiquitination of Keap1
same,OBT-mediated degradation of Keap1 with CUL3 downregulation or proteasome inhibitor,"Keap1 [1]; MDA-MB-231, OBT 3 μM, 6 hours",prevented
same,time at which Keap1 restored to physiological levels,Keap1 [1]; U87,24 h
same,earliest time of Keap1 decrease,"Keap1 [1]; U87, following treatment with OBT",4 h
same,Keap1 protein levels,"Keap1 [1]; U87, 1 μM time course, indicated doses 8 hours",time- and dose-dependent decrease
same,reversibility of modification at Cys151 and Cys434,"Keap1 [2]; Cys151 BTB domain, Cys434 Kelch domain",partially reversible
same,covalent binding to cysteine sites of Keap1,Keap1 [2]; differential alkylation,bind covalently to all identified cysteine sites
same,cell death with neddylation inhibitor MLN4924,MDA-MB231 cells,protection against cell death
same,heme oxygenase 1 (HMOX1; HO1) protein change,GSCs (GBM8 and BT07),top upregulated protein
